{"source": "patent US20240285528A1", "about": "“NANO-MOLECULE AGGREGATE CONSISTING OF ORGANIC MATERIAL, INORGANIC MATERIAL OR SALT THEREOF AND PREPARATION METHOD THEREFOR” (SCAI THERAPEUTICS CO., LTD., priority 2021, published 2024)"}
{"test": "Aqueous solubility (dispersity) by HPLC after stirring and filtration", "assay_type": "physicochemical", "conditions": "water, stirred at 25° C. for 10 hours, 0.2 micron filter"}
{"molecule": "Nc1ncnc2c1ncn2[C@@H]1O[C@H](CO)[C@@H](O)[C@H]1O", "note": "[Adenosine, adenosine]", "Aqueous solubility (dispersity)": "0.27 % (wt/v)"}
{"molecule": "CC(=O)Oc1cc2c(cc1Cl)C(c1ccccc1C(=O)O)c1cc(Cl)c(OC(C)=O)cc1O2", "note": "[DCF-DA, 2′, 7′-dichlorofluorescin diacetate]", "Aqueous solubility (dispersity)": "0.004 % (wt/v)"}
{"molecule": "C=C1CCN([C@H](C)[C@](O)(Cn2cncn2)c2ccc(F)cc2F)CC1", "note": "[Epinaconazole, epinaconazole]", "Aqueous solubility (dispersity)": "0.321 % (wt/v)"}
{"molecule": "O=C(Nc1ccc([N+](=O)[O-])cc1Cl)c1cc(Cl)ccc1O", "note": "[Niclosamide, niclosamide]", "Aqueous solubility (dispersity)": "0.0033 % (wt/v)"}
{"molecule": "C=CC[C@@H]1/C=C(\\C)C[C@H](C)C[C@H](OC)[C@H]2O[C@@](O)(C(=O)C(=O)N3CCCC[C@H]3C(=O)O[C@H](/C(C)=C/[C@@H]3CC[C@@H](O)[C@H](OC)C3)[C@H](C)[C@@H](O)CC1=O)[C@H](C)C[C@@H]2OC", "note": "[Tacrolimus, tacrolimus]", "Aqueous solubility (dispersity)": "7.6 % (wt/v)"}
